Literature values in patent US20230398127A1, “USE OF COMBINED ORAL CONTRACEPTIVES CONTAINING NOMEGESTROL ACETATE AND ESTRADIOL” (THERAMEX HQ UK LIMITED, priority 2020, published 2023).

Biological target: T1, progesterone receptor (Homo sapiens, UniProt P06401)
T1 sequence (P06401 1-933): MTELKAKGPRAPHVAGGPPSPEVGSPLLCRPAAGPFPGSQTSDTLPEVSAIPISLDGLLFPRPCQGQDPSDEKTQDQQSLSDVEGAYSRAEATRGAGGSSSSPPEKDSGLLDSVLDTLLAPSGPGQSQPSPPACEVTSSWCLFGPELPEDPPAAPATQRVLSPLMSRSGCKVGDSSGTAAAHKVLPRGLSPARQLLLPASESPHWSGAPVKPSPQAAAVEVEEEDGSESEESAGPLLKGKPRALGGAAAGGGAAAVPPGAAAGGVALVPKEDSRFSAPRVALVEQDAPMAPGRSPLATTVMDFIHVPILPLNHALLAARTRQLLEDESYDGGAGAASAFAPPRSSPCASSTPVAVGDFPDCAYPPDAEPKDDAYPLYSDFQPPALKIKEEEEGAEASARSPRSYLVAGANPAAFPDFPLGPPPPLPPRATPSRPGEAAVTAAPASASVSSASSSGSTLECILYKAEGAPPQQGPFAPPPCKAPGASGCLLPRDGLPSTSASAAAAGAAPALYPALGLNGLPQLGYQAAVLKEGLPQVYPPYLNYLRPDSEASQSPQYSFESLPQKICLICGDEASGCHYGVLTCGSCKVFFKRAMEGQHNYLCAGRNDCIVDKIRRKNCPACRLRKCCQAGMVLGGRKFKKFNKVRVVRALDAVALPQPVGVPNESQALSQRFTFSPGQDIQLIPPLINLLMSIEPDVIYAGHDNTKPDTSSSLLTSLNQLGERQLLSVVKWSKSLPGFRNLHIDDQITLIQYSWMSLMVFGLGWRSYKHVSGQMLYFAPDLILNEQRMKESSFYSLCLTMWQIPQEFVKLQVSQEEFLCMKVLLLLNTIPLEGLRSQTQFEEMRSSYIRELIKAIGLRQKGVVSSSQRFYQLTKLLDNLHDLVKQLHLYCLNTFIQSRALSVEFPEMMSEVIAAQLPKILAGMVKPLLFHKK

CC(=O)O[C@]1(C(C)=O)CC[C@H]2[C@@H]3C=C(C)C4=CC(=O)CC[C@@H]4[C@H]3CC[C@@]21C [nomegestrol acetate, 17α-acetoxy-6-methyl-19-norpregna-4,6-diene-3,20-dione]
Affinity for the progesterone receptor: strong
